Here are results for one compound from patent US5256700A (priority 1990, dated 1993).

Bounds are passed on as bounds.

Data set [1] deals with simple herpes of type 1 (HSV1). As to the kind of experiment: Antiviral activity in vitro, test 1 (titer after 2 h incubation), HSV1. It is filed as cell-based, HSV1 (cultured on VERO cell line). The note with it: control 10^5.
Data set [2] deals with simple herpes of type 2 (HSV2). As to the kind of experiment: Antiviral activity in vitro, test 1 (titer after 2 h incubation), HSV2. The data set is classed as cell-based, HSV2 (cultured on VERO cell line). The note with it: control 10^4.
Data set [3] deals with simple herpes of type 1 (HSV1). Nature of the data set: Antiviral activity in vitro, test 2 (viral production after 4 days), HSV1. The note with it: for Number of viral particles/0.025 ml supernatant, Test 2 HSV1: control 2 × 10^8. It is filed as cell-based, HSV1 (cultured on VERO cell line).
In data set [4] the test system is simple herpes of type 2 (HSV2). As to the kind of experiment: Antiviral activity in vitro, test 2 (viral production after 4 days), HSV2. It is filed as cell-based, HSV2 (cultured on VERO cell line). The note with it: for Number of viral particles/0.025 ml supernatant, Test 2 HSV2: control 10^7.
For the next data set, the system named is DNA. As to the kind of experiment: Degradation of DNA caused by free radicals.
A further data set in a line: Chemical stability. The data set is classed as physicochemical.
For data set [5] the following is noted: Brieskorn and Domling 1969; cited from earlier work.
The test system of data set [6] is certain microorganisms responsible for dental caries and bad breath. The note with it: CA 97, 84835q; cited from earlier work.

`CC(C)c1cc2c(c(O)c1O)[C@@]1(C(=O)O)CCCC(C)(C)[C@@H]1CC2` [Carnosic acid]: the “Number of viral particles/0.025 ml supernatant, Test 1 HSV1” value in [1] (0.62 μg/ml) is given as 10^4 viral particles/0.025 ml supernatant; in data set [1] (1.25 μg/ml), 10^3 viral particles/0.025 ml supernatant; in data set [1] (2.5 μg/ml), 10 viral particles/0.025 ml supernatant; in data set [1] (5 μg/ml), 10 viral particles/0.025 ml supernatant. Moreover, the “Number of viral particles/0.025 ml supernatant, Test 1 HSV2” value in [2] (0.62 μg/ml), in [2] (1.25 μg/ml), in data set [2] (2.5 μg/ml) and in data set [2] (5 μg/ml) was 10 viral particles/0.025 ml supernatant each time. For the same compound, the “Number of viral particles/0.025 ml supernatant, Test 2 HSV1” value in [3] (0.62 μg/ml) is given as 6 × 10^6 viral particles/0.025 ml supernatant; in [3] (1.25 μg/ml), 2.5 × 10^6 viral particles/0.025 ml supernatant; in data set [3] (2.5 μg/ml), 10^5 viral particles/0.025 ml supernatant; in data set [3] (5 μg/ml) it was 10^2 viral particles/0.025 ml supernatant. Further, in [3] (test 2), the “production of HSV1” value is given as “greatly affected”. Also, the “Number of viral particles/0.025 ml supernatant, Test 2 HSV2” value is recorded as 8 × 10^5 viral particles/0.025 ml supernatant in data set [4] (0.62 μg/ml), 10^5 viral particles/0.025 ml supernatant in data set [4] (1.25 μg/ml), 2 × 10^2 viral particles/0.025 ml supernatant in data set [4] (2.5 μg/ml) and < 10 viral particles/0.025 ml supernatant in data set [4] (5 μg/ml). For the same compound, the “production of HSV2” value in data set [4] (test 2) was “greatly affected”. The “effect on the degradation of DNA caused by the free radicals” value with DNA was “inhibiting effect”. Further, in the data set “Chemical stability” (like any catechol-type molecule), the “sensitivity to oxidation” value is reported as “highly sensitive to oxidation”. Moreover, the “stability, purified and crystallized form” value in “Chemical stability” (purified and crystallized form) was “stable”. Also, the “cell toxicity” value with VERO cell line is given as “absence of cell toxicity”. Moreover, the “antioxidant activity” value in data set [5] is “powerful antioxidant”. In data set [6], the “antibiotic activity against microorganisms responsible for dental caries and bad breath” value was “against certain microorganisms responsible for dental caries and bad breath”.
